# Laboratory results from patent publication US9211310B2, “Use of a Chinese medicine composition in preparing medicaments for treating secondary prevention of myocardial infarction” (TASLY PHARMACEUTICAL GROUP CO., LTD, priority 2010, dated 2015).
# System: patients after acute myocardial infarction
# Test: TCM symptom score, total and single (chest pain, chest tightness, short breath, fatigue, palpitation, spontaneous perspiration, pale complexion), same clinical trial
# Type: in vivo, human
# Set-up: total score of TCM symptom, Mean / total score of TCM symptom, Min / total score of TCM symptom, Max / total score of TCM symptom, Md / change of total score of TCM symptom, Mean / change of total score of TCM symptom, Max / change of total score of TCM symptom, Md: scale not given here
# Settings: FAS
# Source text: 3508 patients who were in accordance with the diagnostic standards of AMI for 28 days to 2 years and differentiated as Qi deficiency and blood stagnation syndrome by TCM were studied. 0.5 g Chinese medicine composition prepared by the method of EXAMPLE 1 (Coded as QSYQ) was administrated half an hour after meal, 3 times per day.
# They included the overall survival time, angina pectoris score, TCM symptom score and life quality score, where angina pectoris score, TCM symptom score and life quality score were evaluated at randomization, in 1st, 3rd, 6th, 9th, 12th month after treatment and 18th month after follow-up.
# The analysis method referred to the angina pectoris score.
# [1] = 12 months after treatment-baseline
smiles,measurement,setting,value
"CC(=O)Oc1ccccc1C(=O)O [Control group, aspirine]","change of palpitation 3, number of patients",[1],8
same,"change of palpitation 3, percent of patients",[1],(0.47%)
same,"change of palpitation −1, percent of patients",[1],(6.55%)
same,"change of palpitation −2, number of patients",[1],4
same,"change of palpitation −2, percent of patients",[1],(0.23%)
same,"change of palpitation −3, number of patients",[1],0
same,"change of palpitation −3, percent of patients",[1],(0.00%)
same,"change of spontaneous perspiration 0, number of patients",[1],837
same,"change of spontaneous perspiration 0, percent of patients",[1],(48.98%)
same,"change of spontaneous perspiration 1, number of patients",[1],550
same,"change of spontaneous perspiration 1, percent of patients",[1],(32.18%)
same,"change of spontaneous perspiration 2, number of patients",[1],139
same,"change of spontaneous perspiration 2, percent of patients",[1],(8.13%)
same,"change of spontaneous perspiration 3, number of patients",[1],34
same,"change of spontaneous perspiration 3, percent of patients",[1],(1.99%)
same,"change of spontaneous perspiration −1, number of patients",[1],137
same,"change of spontaneous perspiration −1, percent of patients",[1],(8.02%)
same,"change of spontaneous perspiration −2, number of patients",[1],12
same,"change of spontaneous perspiration −2, percent of patients",[1],(0.70%)
same,"change of spontaneous perspiration −3, number of patients",[1],0
same,"change of spontaneous perspiration −3, percent of patients",[1],(0.00%)
same,"change of total score of TCM symptom, Max",[1],18.00
same,"change of total score of TCM symptom, Md",[1],−5.00
same,"change of total score of TCM symptom, Mean",[1],−5.39
same,"change of total score of TCM symptom, Min",[1],−33.00
same,"distribution of total score of TCM symptom: Medium, number of patients",Baseline,817
same,"distribution of total score of TCM symptom: Medium, percentage of patients",Baseline,(47.83%)
same,"distribution of total score of TCM symptom: Mild, number of patients",Baseline,828
same,"distribution of total score of TCM symptom: Mild, percentage of patients",Baseline,(48.48%)
same,"distribution of total score of TCM symptom: Severe, number of patients",Baseline,63
same,"distribution of total score of TCM symptom: Severe, percentage of patients",Baseline,(3.69%)
same,"fatigue score 0, % of patients",Baseline,(18.42%)
same,"fatigue score 0, number of patients",Baseline,315
same,"fatigue score 2, % of patients",Baseline,(60.94%)
same,"fatigue score 2, number of patients",Baseline,1042
same,"fatigue score 4, % of patients",Baseline,(16.90%)
same,"fatigue score 4, number of patients",Baseline,289
same,"fatigue score 6, % of patients",Baseline,(3.74%)
same,"fatigue score 6, number of patients",Baseline,64
same,"pale complexion score 0, number of patients",Baseline,572
same,"pale complexion score 0, percent of patients",Baseline,(33.47%)
same,"pale complexion score 1, number of patients",Baseline,741
same,"pale complexion score 1, percent of patients",Baseline,(43.36%)
same,"pale complexion score 2, number of patients",Baseline,325
same,"pale complexion score 2, percent of patients",Baseline,(19.02%)
same,"pale complexion score 3, number of patients",Baseline,71
same,"pale complexion score 3, percent of patients",Baseline,(4.15%)
same,"short breath score 0, % of patients",Baseline,(15.04%)
same,"short breath score 0, number of patients",Baseline,257
same,"short breath score 3, % of patients",Baseline,(51.84%)
same,"short breath score 3, number of patients",Baseline,886
same,"short breath score 6, % of patients",Baseline,(31.19%)
same,"short breath score 6, number of patients",Baseline,533
same,"short breath score 9, % of patients",Baseline,(1.93%)
same,"short breath score 9, number of patients",Baseline,33
same,"distribution of total score of TCM symptom: Medium, number of patients",Follow-up,218
same,"distribution of total score of TCM symptom: Medium, percentage of patients",Follow-up,(15.29%)
same,"distribution of total score of TCM symptom: Mild, number of patients",Follow-up,1205
same,"distribution of total score of TCM symptom: Mild, percentage of patients",Follow-up,(84.50%)
same,"distribution of total score of TCM symptom: Severe, number of patients",Follow-up,3
same,"distribution of total score of TCM symptom: Severe, percentage of patients",Follow-up,(0.21%)
same,"fatigue score 0, % of patients",Follow-up,(42.76%)
same,"fatigue score 0, number of patients",Follow-up,611
same,"fatigue score 2, % of patients",Follow-up,(53.11%)
same,"fatigue score 2, number of patients",Follow-up,759
same,"fatigue score 4, % of patients",Follow-up,(3.92%)
same,"fatigue score 4, number of patients",Follow-up,56
same,"fatigue score 6, % of patients",Follow-up,(0.21%)
same,"fatigue score 6, number of patients",Follow-up,3
same,"pale complexion score 0, number of patients",Follow-up,882
same,"pale complexion score 0, percent of patients",Follow-up,(61.72%)
same,"pale complexion score 1, number of patients",Follow-up,465
same,"pale complexion score 1, percent of patients",Follow-up,(32.54%)
same,"pale complexion score 2, number of patients",Follow-up,76
same,"pale complexion score 2, percent of patients",Follow-up,(5.32%)
same,"pale complexion score 3, number of patients",Follow-up,6
same,"pale complexion score 3, percent of patients",Follow-up,(0.42%)
same,"palpitation score 0, number of patients",Follow-up,631
same,"palpitation score 0, percent of patients",Follow-up,(44.16%)
same,"palpitation score 2, number of patients",Follow-up,697
same,"palpitation score 2, percent of patients",Follow-up,(48.78%)
same,"palpitation score 4, number of patients",Follow-up,95
same,"palpitation score 4, percent of patients",Follow-up,(6.65%)
same,"palpitation score 6, number of patients",Follow-up,6
same,"palpitation score 6, percent of patients",Follow-up,(0.42%)
same,"short breath score 0, % of patients",Follow-up,(35.62%)
same,"short breath score 0, number of patients",Follow-up,509
same,"short breath score 2, % of patients",Follow-up,(0.07%)
same,"short breath score 2, number of patients",Follow-up,1
same,"short breath score 3, % of patients",Follow-up,(54.51%)
same,"short breath score 3, number of patients",Follow-up,779
same,"short breath score 6, % of patients",Follow-up,(9.59%)
same,"short breath score 6, number of patients",Follow-up,137
same,"short breath score 9, % of patients",Follow-up,(0.21%)
same,"short breath score 9, number of patients",Follow-up,3
same,"spontaneous perspiration score 0, number of patients",Follow-up,767
same,"spontaneous perspiration score 0, percent of patients",Follow-up,(53.71%)
same,"spontaneous perspiration score 1, number of patients",Follow-up,595
same,"spontaneous perspiration score 1, percent of patients",Follow-up,(41.67%)
same,"spontaneous perspiration score 2, number of patients",Follow-up,62
same,"spontaneous perspiration score 2, percent of patients",Follow-up,(4.34%)
same,"spontaneous perspiration score 3, number of patients",Follow-up,4
same,"spontaneous perspiration score 3, percent of patients",Follow-up,(0.28%)
same,"total score of TCM symptom, Max",Follow-up,32.00
same,"total score of TCM symptom, Md",Follow-up,7.00
same,"total score of TCM symptom, Mean",Follow-up,7.71
same,"total score of TCM symptom, Min",Follow-up,0.00
same,"change of fatigue 0, % of patients",Follow-up-baseline,(42.67%)
same,"change of fatigue 0, number of patients",Follow-up-baseline,608
same,"change of fatigue 2, % of patients",Follow-up-baseline,(37.68%)
same,"change of fatigue 2, number of patients",Follow-up-baseline,537
same,"change of fatigue 4, % of patients",Follow-up-baseline,(11.09%)
same,"change of fatigue 4, number of patients",Follow-up-baseline,158
same,"change of fatigue 6, % of patients",Follow-up-baseline,(2.11%)
same,"change of fatigue 6, number of patients",Follow-up-baseline,30
same,"change of fatigue −2, % of patients",Follow-up-baseline,(6.11%)
same,"change of fatigue −2, number of patients",Follow-up-baseline,87
same,"change of fatigue −4, % of patients",Follow-up-baseline,(0.35%)
same,"change of fatigue −4, number of patients",Follow-up-baseline,5
same,"change of pale complexion 0, number of patients",Follow-up-baseline,950
same,"change of pale complexion 0, percent of patients",Follow-up-baseline,(66.95%)
same,"change of pale complexion 1, number of patients",Follow-up-baseline,430
same,"change of pale complexion 1, percent of patients",Follow-up-baseline,(30.30%)
